{"source": "patent US20090042820A1", "about": "“Tubulin Binding Anti Cancer Agents And Prodrugs Thereof” (Threshold Pharmaceuticals, Inc., priority 2004, published 2009)", "key": {"[1]": {"experiment": "Metabolic stability in mouse liver microsomes", "type": "in vitro ADME", "settings": "5 μM, 1 mg/mL protein, NADPH, 37° C.", "experimental": "An in vitro assessment of metabolic stability of compounds was performed using commercially available mouse liver microsomes (MLM) containing cytochrome P450 enzymes (Cedra Corp, Austin, Tex.). A solutions (5 μM) of a compound and microsomes (1 mg/mL protein) was prepared. P450 enzymatic reactions were initiated by adding an NADPH solution. Enzymatic reactions were carried out in a thermostated shaking water bath kept at 37° C. Fifty μl of the reaction mixture was withdrawn immediately and 30 minutes after the addition of the NADPH solution and the proteins were precipitated with acetonitrile. The clear supernatant was analyzed by reversed phase LC-MS/MS (Applied Biosystems API-3000 with Hypersil-BDS C18 column and gradient elution), with internal standard area ratio quantification for the amount the compound remaining as shown in table 4."}, "HT29": {"tested_on": "HT29", "experiment": "Alamar Blue antiproliferation assay, HT29", "type": "cell-based", "settings": "Homo sapiens, HT-29, 72 h; HT29, 3 Day"}, "[2]": {"experiment": "H460 xenograft mouse model", "type": "in vivo", "settings": "female, mouse, in vivo; daily dose for five days, CB17/SCID mice; read-out: maximum tolerated dose", "experimental": "(§1) Female CB17/SCID mice (purchased from Taconic, Oxnard, Calif.), 7-8 weeks of age, were allowed to acclimatize for at least three days, and handled under pathogen-free conditions. Human non-small cell lung cancer cell line […] was obtained from the American Type Culture Collection. The cell lines were cultured in RPMI 1640 media supplemented with 10% fetal bovine serum. Cells were maintained in a 37° C. incubator with 5% CO2. The H460 cells were harvested from culture and inoculated at 1×10^6 cells/animal in the […] subcutaneous space. […] Taxol was administered approximately 2-3 hours before that of compound 30.\n(§2) The body weight of each mouse was recorded twice per week (FIG. 1). […] One animal in the treatment group was found dead on day 18, and two were found dead on day 22 in the combination group.\n(§3) FIG. 2 graphically illustrates the mean tumor volume for each treatment group. Growth of each xenograft was monitored by externally measuring tumors in two dimensions using a digital caliper twice per week. Tumor volume (V) was determined by the following equation: V=(L×W^2)/2, where L is the length and W is the width of a xenograft. Tumor volumes were measured twice weekly. On day 11, the Treated/Control (T/C) ratio was 65% and 52% in the treatment and combination groups, respectively. At the final measurement (day 22), the T/C ratio for the treatment and combination groups respectively were 43% and 19%."}, "H460 xenograft": {"tested_on": "H460 xenograft", "experiment": "H460 xenograft mouse model", "type": "in vivo", "settings": "for Treated/Control (T/C) ratio, tumor volume: compound 30 5 mg/kg daily for five days from day 8", "experimental": "as §1, §2, §3"}, "tubulin": {"tested_on": "tubulin", "experiment": "Tubulin polymerization inhibition (cell free tubulin fluorescence)", "type": "biochemical", "settings": "compared to untreated tubulin, read-out: IC50 (μM), concentration that reduced tubulin fluorescence by 50%", "experimental": "A sample of cell free tubulin polymerizes and the sample's fluorescence emission increases. Inhibition of tubulin polymerization by a tubulin binding compounds of the present invention was measured by the dose dependence of cell free tubulin fluorescence."}, "T47D": {"tested_on": "T47D", "experiment": "Alamar Blue antiproliferation assay, T47D", "type": "cell-based", "settings": "Homo sapiens, 72 h, 3 Day"}, "MES-SA": {"tested_on": "MES-SA", "experiment": "Alamar Blue antiproliferation assay, MES-SA", "type": "cell-based", "settings": "Homo sapiens, 72 h, 3 Day"}, "MES-SA/DX5": {"tested_on": "MES-SA/DX5", "experiment": "Alamar Blue antiproliferation assay, MES-SA/DX5", "type": "cell-based", "settings": "Homo sapiens, 72 h; MES-SA/DX5, 3 Day"}, "H460 cells [3]": {"tested_on": "H460 cells", "experiment": "Alamar Blue antiproliferation assay, H460 cell line", "type": "cell-based, human", "settings": "Homo sapiens", "experimental": "(§4) To determine the effect of the compounds of the present invention on cell proliferation, the antiproliferative activity of these compounds was tested in a multi-well Alamar Blue based assay (at 2 h and 3 days). Cell growth in the presence and absence of the test compound as tabulated in Table 1 was compared, as measured by a fluorescence plate reader at excitation 550 nm and emission 590 nm (see Biosource International Inc., Tech Application Notes, Use of Alamar Blue in the measurement of Cell Viability and Toxicity, Determining IC50). H460 cells (ATCC HTB-177 ([…]), 4,000 cells/well/200 μl) and LNCap cells (ATCC CRL-1740, 6,000 cells/well/200 μl) were seeded in a 96 well plate in RPMI medium (Invitrogen Corporation, Carlsbad, Calif.). After 24 hours, these plates were divided into 3 groups—Control group, 2 h treatment group and 3 day treatment group.\n(§5) In the 2 h treatment group, after 2 h the cells were rinsed to remove the test compound and incubated for 3 days, followed by staining with AlamarBlue. The cells in the 3-day treatment group were incubated for 3 days, followed by staining with AlamarBlue. In the Control group, AlamarBlue was added to the plate at (i) day 0 and (ii) day 3 and measured to establish the control reading. In all the groups, the capacity of the cells to proliferate was measured 6 hours after addition of AlamarBlue by a fluorescence plate reader at excitation 550 nm and emission 590 nm."}, "Plasma stability": {"experiment": "Plasma stability", "type": "in vitro ADME", "settings": "mouse plasma, 5 μM, 37° C.", "experimental": "For an assessment of plasma stability of compounds, commercially available mouse plasma (Bioreclamation, Hicksville, N.Y.) was added to a DMSO solution of a compound, to a concentration of 5 μM. The reaction mixture (50 μl) was withdrawn immediately and after 30 minutes at 37° C., proteins were precipitated with acetonitrile. The clear supernatant was analyzed by reversed phase LC-MS/MS and the amount the compound remaining quantified as shown in table 4."}, "H460 cells [4]": {"tested_on": "H460 cells", "experiment": "Cell cycle analysis", "type": "cell-based, human", "settings": "24 h", "experimental": "H460 cells (2×10^5 cells/ml/well) were seeded in a 24 well plate. The culture media were removed after 24 h, the cells were trypsinized and centrifuged. […] The cells were centrifuged and the supernatant was discarded. The cell cycle staining reagent (Guava Technologies, Hayward, Calif., USA, 200 μl) was added to each well. The cells were shielded from light and incubated at room temperature for 30 min."}, "cancer cell": {"tested_on": "cancer cell", "experiment": "Cancer cell antiproliferation assay (cell line not stated)", "type": "cell-based", "settings": "summary statement; read-out: GI50 or IC50 in a cancer cell antiproliferation assay", "experimental": "In one aspect, the present invention provides a compound of formula (I-VII) having a GI50, GI90, IC50, or IC50 of about 0.001 to about 1000 nM, about 0.01 to about 100 nm, about 0.1 to about 50 nM, and about 1 to about 10 nM in a cancer cell antiproliferation assay. In one embodiment, the present invention provides a compound of formula (I) having a GI50 or IC50 of about 0.01 to about 100 nm, about 0.1 to about 50 nm, and about 1 to about 10 nm in a cancer cell antiproliferation assay. In various embodiments, said antiproliferation assays employ cancer cell including but not limited to gastric, colon, breast, and non-small cell lung cancer. In various embodiments, the […] cancer cell used is MESSA or doxorubicin resistant MESSA/DX5 cell; the colon cancer cell is HT29 cell; the breast cancer cell is T47D cell; and the non-small cell lung cancer cell is H460 cell.\nas §4, §5"}}, "note": "Where two headings read alike, the source gives them in different places."}
{"smiles": "COc1cc(C(=O)c2n[nH]c3c(C#CCO)c(OC)ccc23)cc(OC)c1OC", "note": "[Compound 30]", "values": [{"measurement": "Metabolic stability (MLM, % remaining at 30 min)", "setting": "[1]", "value": "101 ± 16", "unit": "%"}, {"measurement": "GI50", "setting": "HT29", "value": 1.9, "unit": "nM"}, {"measurement": "MTD at 5 days", "setting": "[2]", "value": "5 to 20", "unit": "mg/kg"}, {"measurement": "toxicity at doses greater than 5 mg/kg", "setting": "H460 xenograft; daily doses 20 and 50 mg/kg for five days, treatment and combination groups", "value": "toxic and caused lethality"}, {"measurement": "Treated/Control (T/C) ratio, tumor volume", "setting": "H460 xenograft; day 11", "value": 65, "unit": "%"}, {"measurement": "animals found dead", "setting": "H460 xenograft; day 18, compound 30 5 mg/kg daily, ten per group", "value": "One"}, {"measurement": "Treated/Control (T/C) ratio, tumor volume", "setting": "H460 xenograft; day 22 (final measurement)", "value": 43, "unit": "%"}, {"measurement": "mean weight loss", "setting": "H460 xenograft; day 22 from start of treatment on day 8, compound 30 5 mg/kg daily for five days", "value": 8, "unit": "%"}, {"measurement": "tumor volume as % of a control tumor volume", "setting": "H460 xenograft; human cancer cell xenograft tumor bearing mice, summary statement", "value": "5-70%"}, {"measurement": "IC50", "setting": "tubulin", "value": 3.9, "unit": "µM"}, {"measurement": "GI50", "setting": "T47D", "value": 2.5, "unit": "nM"}, {"measurement": "GI50", "setting": "MES-SA", "value": 0.3, "unit": "nM"}, {"measurement": "GI50", "setting": "MES-SA/DX5", "value": 1.6, "unit": "nM"}, {"measurement": "GI50", "setting": "H460 cells [3]; NCI-H460, 2 h treatment, then 3 days incubation, read-out: GI50 (nM) 2 Hour", "value": 630, "unit": "nM"}, {"measurement": "GI50", "setting": "H460 cells [3]; NCI-H460, 72 h, 3 day treatment, read-out: GI50 (nM) 3 Days", "value": 10, "unit": "nM"}, {"measurement": "Plasma stability (% remaining at 30 min)", "setting": "Plasma stability", "value": 104, "unit": "%"}, {"measurement": "% G2/M", "setting": "H460 cells [4]; H460, 0.4 nM", "value": 31, "unit": "%"}, {"measurement": "% Go/G1", "setting": "H460 cells [4]; H460, 0.4 nM", "value": 46, "unit": "%"}, {"measurement": "% S", "setting": "H460 cells [4]; H460, 0.4 nM", "value": 14, "unit": "%"}, {"measurement": "% G2/M", "setting": "H460 cells [4]; H460, 1.2 nM", "value": 29, "unit": "%"}, {"measurement": "% Go/G1", "setting": "H460 cells [4]; H460, 1.2 nM", "value": 48, "unit": "%"}, {"measurement": "% S", "setting": "H460 cells [4]; H460, 1.2 nM", "value": 15, "unit": "%"}, {"measurement": "% G2/M", "setting": "H460 cells [4]; H460, 3.7 nM", "value": 31, "unit": "%"}, {"measurement": "% Go/G1", "setting": "H460 cells [4]; H460, 3.7 nM", "value": 46, "unit": "%"}, {"measurement": "% S", "setting": "H460 cells [4]; H460, 3.7 nM", "value": 14, "unit": "%"}, {"measurement": "% G2/M", "setting": "H460 cells [4]; H460, 11.1 nM", "value": 68, "unit": "%"}, {"measurement": "% Go/G1", "setting": "H460 cells [4]; H460, 11.1 nM", "value": 14, "unit": "%"}, {"measurement": "% S", "setting": "H460 cells [4]; H460, 11.1 nM", "value": 9, "unit": "%"}, {"measurement": "% G2/M", "setting": "H460 cells [4]; H460, 33.3 nM", "value": 80, "unit": "%"}, {"measurement": "% Go/G1", "setting": "H460 cells [4]; H460, 33.3 nM", "value": 7, "unit": "%"}, {"measurement": "% S", "setting": "H460 cells [4]; H460, 33.3 nM", "value": 7, "unit": "%"}, {"measurement": "IC50", "setting": "cancer cell", "value": "1 to 50", "unit": "nM"}]}
